From ChEMBL document CHEMBL5729608, “Oxazolidinone antibiotic compounds and process of preparation” (2023)

Target: Voltage-gated inwardly rectifying potassium channel KCNH2 (Homo sapiens, UniProt Q12809)
Experiment: hERG Inhibition Assay: Compounds were solubilised to 100 mM in DMSO before dilution in HBPS to 300 μM. 6-Point concentration-response curves were generated using 3.16-fold serial dilutions from the top test concentration. Procedure: Electrophysiological recordings were made from a Chinese Hamster Ovary cell line stably expressing the full-length hERG potassium channel. Single cell ionic currents were measured in whole-cell patch clamp configuration at room temperature (21-23° C.) using the QPatch HTX platform (Sophion). Intracellular solution contained (mM): 120 KF, 20 KCl, 10 EGTA, 10 HEPES and was buffered to pH 7.3. The extracellular solution (HEPES-buffered physiological saline, HBPS) contained (mM): 145 NaCl, 4 KCl, 2 CaCl2, 1 MgCl2, 10 HEPES, 10 glucose, buffered to pH7.4. Cells were clamped at a holding potential of −80 mV. Cells were stepped to +20 mV for 2 s then −40 mV for 3s before returning to the holding potential. This sweep was repeated 10 times at 10 s intervals. hERG currents were measured from the tail step and referenced to the holding current.

Sequence of Voltage-gated inwardly rectifying potassium channel KCNH2 (Q12809 whole entry): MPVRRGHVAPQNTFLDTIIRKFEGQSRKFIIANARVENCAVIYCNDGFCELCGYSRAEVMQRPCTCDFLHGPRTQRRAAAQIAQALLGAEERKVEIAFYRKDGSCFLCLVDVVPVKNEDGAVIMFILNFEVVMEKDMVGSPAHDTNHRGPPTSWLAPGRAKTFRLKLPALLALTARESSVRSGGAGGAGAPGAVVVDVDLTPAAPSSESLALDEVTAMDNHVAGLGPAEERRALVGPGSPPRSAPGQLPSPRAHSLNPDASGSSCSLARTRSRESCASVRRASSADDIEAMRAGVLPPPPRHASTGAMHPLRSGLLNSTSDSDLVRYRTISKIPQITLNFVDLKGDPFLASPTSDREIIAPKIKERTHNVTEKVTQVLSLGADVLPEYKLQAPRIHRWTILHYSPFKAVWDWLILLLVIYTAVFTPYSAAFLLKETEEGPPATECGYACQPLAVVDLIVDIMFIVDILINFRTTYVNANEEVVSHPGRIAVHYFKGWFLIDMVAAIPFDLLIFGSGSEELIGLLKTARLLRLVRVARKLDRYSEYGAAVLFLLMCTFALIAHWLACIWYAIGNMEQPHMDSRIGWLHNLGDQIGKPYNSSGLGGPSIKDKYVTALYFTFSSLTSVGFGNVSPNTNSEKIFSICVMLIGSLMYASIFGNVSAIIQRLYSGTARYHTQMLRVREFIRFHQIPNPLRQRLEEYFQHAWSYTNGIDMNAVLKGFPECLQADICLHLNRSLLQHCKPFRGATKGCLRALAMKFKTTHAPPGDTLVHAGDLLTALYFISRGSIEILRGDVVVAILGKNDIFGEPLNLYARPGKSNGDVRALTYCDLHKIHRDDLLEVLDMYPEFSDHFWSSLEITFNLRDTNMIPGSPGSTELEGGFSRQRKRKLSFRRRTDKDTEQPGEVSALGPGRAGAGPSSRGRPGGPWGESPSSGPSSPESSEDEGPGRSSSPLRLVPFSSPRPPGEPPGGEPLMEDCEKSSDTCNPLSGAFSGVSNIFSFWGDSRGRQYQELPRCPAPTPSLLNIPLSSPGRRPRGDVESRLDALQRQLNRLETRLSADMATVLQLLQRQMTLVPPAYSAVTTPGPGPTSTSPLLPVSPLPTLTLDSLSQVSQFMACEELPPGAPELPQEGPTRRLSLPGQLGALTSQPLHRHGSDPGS

Cn1c(=O)cnc2cc(F)c(OCCNC[C@H]3CN(c4cnc5c(n4)NC(=O)CO5)C(=O)O3)nc21
IC50: 98 µM
